# Measurements published in patent US11974552B2, “Transgenic C57BL6-BTBR mouse with a humanized MHC II gene that expresses GAD65” (The University of Toledo, priority 2018, dated 2024).
# System: pancreatic lymph nodes (PLN) CD4 and CD8 T cells of humanized T1D mice
# Assay: In-vitro CFSE proliferation assay of pancreatic lymph node T cells stimulated with rGAD65
# Assay type: cell-based
# Details: pulse stimulation 4 ug/ml for 4 days; PLN single cell suspension of diabetic mouse; CFSE tracking
# Method: FIG. 6C: rGAD65 induced proliferation of CD4 and CD8 cells, pancreatic lymph nodes (PLN) were isolated from humanized T1D mice and were stimulated with GAD65 (4 μg/ml) for 4 days (n=4). The proliferation of cells were tracked using CFSE and analyzed by FLOWJO V10 Beta software using fix ratio, fix CV and fix background from the un-stimulated cells.
# The diabetogenic T cells are auto-antigen specific in nature. The pancreatic lymph nodes (PLN) of a diabetic mouse were isolated and the single cell suspension was stimulated with recombinant human GAD65 protein (4 ug/ml). In-vitro proliferation assay using carboxyfluorescein succinimidyl ester (CFSE) to track the T cell proliferation was performed. Pulse stimulation with human rGAD65 (4 ug/ml) for 4 days increased the CD4 and CD8 proliferation by 9-10 folds (FIG. 6C).
substance,measurement,value
human rGAD65: recombinant human Glutamic Acid Decarboxylase 65 protein used as autoantigen stimulus,increase of CD4 and CD8 proliferation,9-10 folds
